Source: patent publication US20250368625A1, “PIPERAZINES” (Grünenthal GmbH, priority 2024, published 2025)

The compounds below were run against T1, human SSTR4 (Homo sapiens, UniProt P31391) (assay: hSSTR4 cAMP assay (cAMP accumulation, LANCE Ultra cAMP kit, CHO-K1 human SSTR4 Gi cell line)). Settings: functional agonism, forskolin 10 μM stimulated CHO-K1 human SSTR4 Gi cells, 30 min at 25° C., at least duplicate, averaged; read-out: hSSTR4 EC50.
T1 construct: expressed in transfected cells; host or cells: CHO-K1
T1 sequence (P31391 whole entry): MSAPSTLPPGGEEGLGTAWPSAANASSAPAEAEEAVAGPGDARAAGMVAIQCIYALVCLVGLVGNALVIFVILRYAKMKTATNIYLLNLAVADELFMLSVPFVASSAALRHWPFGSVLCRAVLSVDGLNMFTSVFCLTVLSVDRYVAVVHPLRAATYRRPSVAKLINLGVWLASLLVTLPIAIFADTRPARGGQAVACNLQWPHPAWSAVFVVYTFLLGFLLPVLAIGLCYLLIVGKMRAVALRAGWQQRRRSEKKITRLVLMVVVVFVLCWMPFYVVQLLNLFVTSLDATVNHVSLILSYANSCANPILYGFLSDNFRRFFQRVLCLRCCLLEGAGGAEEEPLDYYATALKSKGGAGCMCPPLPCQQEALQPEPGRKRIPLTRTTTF
Assay type: cell-based
In short: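 CHO-K1 cells expressing human SSTR4 (Gi), pre-cultured 18-20 h or thawed and used directly, stimulated with 10 μM forskolin plus test agonist in concentration series, 30 min at 25° C. Lysate cAMP read by TR-FRET (Eu-cAMP tracer/ULight-anti-cAMP, 1 h, 25° C). Normalized to forskolin-only and forskolin+100 nM SST14 controls, 4-parameter fit; ≥duplicate, averaged.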

Row | SMILES | EC50 [nM]
1 | Cc1cccc2c(C(C)(C)NC(=O)[C@@H]3CN(C)CCN3)n[nH]c12 [SC-095, (S)-4-methyl-N-(2-(7-methyl-1H-indazol-3-yl)propan-2-yl)piperazine-2-carboxamide] | 2.9
2 | Cc1cccc2c(C(C)(C)NC(=O)[C@@H]3CNCCN3CC3CCOCC3)n[nH]c12 [SC-096, (S)-N-(2-(7-methyl-1H-indazol-3-yl)propan-2-yl)-1-((tetrahydro-2H-pyran-4-yl)methyl)piperazine-2-carboxamide] | 0.46
3 | COCCN1CCNC[C@H]1C(=O)NC(C)(C)c1n[nH]c2c(C)cccc12 [SC-097, (S)-1-(2-methoxyethyl)-N-(2-(7-methyl-1H-indazol-3-yl)propan-2-yl)piperazine-2-carboxamide] | 1.2
4 | Cc1cccc2c(C(C)(C)NC(=O)[C@@H]3CNCCN3CC(F)(F)F)n[nH]c12 [SC-098, (S)-N-(2-(7-methyl-1H-indazol-3-yl)propan-2-yl)-1-(2,2,2-trifluoroethyl)piperazine-2-carboxamide] | 0.07
5 | CN1CCN[C@H](C(=O)NC(C)(C)c2nn(C)c3ccccc23)C1 [SC-099, (S)-4-methyl-N-(2-(1-methyl-1H-indazol-3-yl)propan-2-yl)piperazine-2-carboxamide] | 21
6 | CN1CCNC[C@H]1C(=O)NC(C)(C)c1nn(C)c2ccccc12 [SC-100, (S)-1-methyl-N-(2-(1-methyl-1H-indazol-3-yl)propan-2-yl)piperazine-2-carboxamide] | 0.91
7 | COCCN1CCNC[C@H]1C(=O)NC(C)(C)c1nn(C)c2ccccc12 [SC-101, (S)-1-(2-methoxyethyl)-N-(2-(1-methyl-1H-indazol-3-yl)propan-2-yl)piperazine-2-carboxamide] | 5.9
8 | Cn1nc(C(C)(C)NC(=O)[C@@H]2CNCCN2CC(F)(F)F)c2ccccc21 [SC-102, (S)-N-(2-(1-methyl-1H-indazol-3-yl)propan-2-yl)-1-(2,2,2-trifluoroethyl)piperazine-2-carboxamide] | 0.84
9 | Cn1nc(C(C)(C)NC(=O)[C@@H]2CNCCN2CC2CCOCC2)c2ccccc21 [SC-103, (S)-N-(2-(1-methyl-1H-indazol-3-yl)propan-2-yl)-1-((tetrahydro-2H-pyran-4-yl)methyl)piperazine-2-carboxamide] | 0.22
10 | CN1CCNC[C@H]1C(=O)NC(C)(C)c1ncc2c(Cl)cccn12 [SC-104, (S)-N-(2-(8-chloroimidazo[1,5-a]pyridin-3-yl)propan-2-yl)-1-methylpiperazine-2-carboxamide] | 0.9
11 | CN1CCN[C@H](C(=O)NC(C)(C)c2ncc3c(Cl)cccn23)C1 [SC-105, (S)-N-(2-(8-chloroimidazo[1,5-a]pyridin-3-yl)propan-2-yl)-4-methylpiperazine-2-carboxamide] | 31
12 | Cn1cc(CN2CCNC[C@H]2C(=O)NC(C)(C)c2ncc3c(Cl)cccn23)cn1 [SC-106, (S)-N-(2-(8-chloroimidazo[1,5-a]pyridin-3-yl)propan-2-yl)-1-((1-methyl-1H-pyrazol-4-yl)methyl)piperazine-2-carboxamide] | 1.5
13 | CC(C)(NC(=O)[C@@H]1CNCCN1CC1CC(F)(F)C1)c1ncc2c(Cl)cccn12 [SC-107, (S)-N-(2-(8-chloroimidazo[1,5-a]pyridin-3-yl)propan-2-yl)-1-((3,3-difluorocyclobutyl)methyl)piperazine-2-carboxamide] | 0.76
14 | CC(C)(NC(=O)[C@@H]1CNCCN1)c1ncc2c(Cl)cccn12 [SC-108, (S)-N-(2-(8-chloroimidazo[1,5-a]pyridin-3-yl)propan-2-yl)piperazine-2-carboxamide] | 19
15 | CN1CCNC[C@@H]1C(=O)NC(C)(C)c1ncc2c(Cl)cccn12 [SC-109, (R)-N-(2-(8-chloroimidazo[1,5-a]pyridin-3-yl)propan-2-yl)-1-methylpiperazine-2-carboxamide] | 1600
16 | CN1CCNC[C@H]1C(=O)NC(C)(C)c1ncc2c(C(F)(F)F)cccn12 [SC-110, (S)-1-methyl-N-(2-(8-(trifluoromethyl)imidazo[1,5-a]pyridin-3-yl)propan-2-yl)piperazine-2-carboxamide] | 36

Other lines, results leading:

Row | EC50 [nM] | SMILES
17 | 94 | Cn1cc(CN2CCNC[C@H]2C(=O)NC(C)(C)c2ncc3c(C(F)(F)F)cccn23)cn1 [SC-111, (S)-1-((1-methyl-1H-pyrazol-4-yl)methyl)-N-(2-(8-(trifluoromethyl)imidazo[1,5-a]pyridin-3-yl)propan-2-yl)piperazine-2-carboxamide]
18 | 490 | CN1CCN[C@H](C(=O)NC(C)(C)c2ncc3c(C(F)(F)F)cccn23)C1 [SC-112, (S)-4-methyl-N-(2-(8-(trifluoromethyl)imidazo[1,5-a]pyridin-3-yl)propan-2-yl)piperazine-2-carboxamide]
19 | 26 | CC(C)(NC(=O)[C@@H]1CNCCN1CC1CC(F)(F)C1)c1ncc2c(C(F)(F)F)cccn12 [SC-113, (S)-1-((3,3-difluorocyclobutyl)methyl)-N-(2-(8-(trifluoromethyl)imidazo[1,5-a]pyridin-3-yl)propan-2-yl)piperazine-2-carboxamide]
20 | 0.38 | Cc1cccn2c(C(C)(C)NC(=O)[C@@H]3CNCCN3C)nc(C)c12 [SC-114, (S)-N-(2-(1,8-dimethylimidazo[1,5-a]pyridin-3-yl)propan-2-yl)-1-methylpiperazine-2-carboxamide]
21 | 0.34 | Cc1cccn2c(C(C)(C)NC(=O)[C@@H]3CNCCN3CC3CC(F)(F)C3)nc(C)c12 [SC-115, (S)-1-((3,3-difluorocyclobutyl)methyl)-N-(2-(1,8-dimethylimidazo[1,5-a]pyridin-3-yl)propan-2-yl)piperazine-2-carboxamide]
22 | 32 | Cc1cccn2c(C(C)(C)NC(=O)[C@@H]3CN(C)CCN3)nc(C)c12 [SC-116, (S)-N-(2-(1,8-dimethylimidazo[1,5-a]pyridin-3-yl)propan-2-yl)-4-methylpiperazine-2-carboxamide]
23 | 1.6 | Cc1cccn2c(C(C)(C)NC(=O)[C@@H]3CNCCN3Cc3cnn(C)c3)nc(C)c12 [SC-117, (S)-N-(2-(1,8-dimethylimidazo[1,5-a]pyridin-3-yl)propan-2-yl)-1-((1-methyl-1H-pyrazol-4-yl)methyl)piperazine-2-carboxamide]
24 | 15 | CN1CCNC[C@H]1C(=O)NC(C)(C)c1ncc2c(C3CC3)cccn12 [SC-118, (S)-N-(2-(8-cyclopropylimidazo[1,5-a]pyridin-3-yl)propan-2-yl)-1-methylpiperazine-2-carboxamide]
25 | 540 | CN1CCN[C@H](C(=O)NC(C)(C)c2ncc3c(C4CC4)cccn23)C1 [SC-119, (S)-N-(2-(8-cyclopropylimidazo[1,5-a]pyridin-3-yl)propan-2-yl)-4-methylpiperazine-2-carboxamide]
26 | 53 | Cn1cc(CN2CCNC[C@H]2C(=O)NC(C)(C)c2ncc3c(C4CC4)cccn23)cn1 [SC-120, (S)-N-(2-(8-cyclopropylimidazo[1,5-a]pyridin-3-yl)propan-2-yl)-1-((1-methyl-1H-pyrazol-4-yl)methyl)piperazine-2-carboxamide]
27 | 16 | CC(C)(NC(=O)[C@@H]1CNCCN1CC1CC(F)(F)C1)c1ncc2c(C3CC3)cccn12 [SC-121, (S)-N-(2-(8-cyclopropylimidazo[1,5-a]pyridin-3-yl)propan-2-yl)-1-((3,3-difluorocyclobutyl)methyl)piperazine-2-carboxamide]
28 | 1.2 | Cc1cccc2c(C(C)(C)NC(=O)[C@@H]3CNCCN3CC3COC3)n[nH]c12 [SC-122, (S)—N-(2-(7-methyl-1H-indazol-3-yl)propan-2-yl)-1-(oxetan-3-ylmethyl)piperazine-2-carboxamide]
29 | 7.1 | Cn1nc(C(C)(C)NC(=O)[C@@H]2CNCCN2CC2COC2)c2ccccc21 [SC-123, (S)—N-(2-(1-methyl-1H-indazol-3-yl)propan-2-yl)-1-(oxetan-3-ylmethyl)piperazine-2-carboxamide]
30 | 4.7 | Cc1cccc2c(C(C)(C)NC(=O)[C@@H]3CNCCN3C)noc12 [SC-124, (S)-1-methyl-N-(2-(7-methylbenzo[d]isoxazol-3-yl)propan-2-yl)piperazine-2-carboxamide]
31 | 1110 | CN1CCNC[C@H]1C(=O)NC(C)(C)c1nnc2c(Cl)cccn12 [SC-125, (S)-N-(2-(8-chloro-[1,2,4]triazolo[4,3-a]pyridin-3-yl)propan-2-yl)-1-methylpiperazine-2-carboxamide]
32 | 2.6 | Cc1cccc2c(C(C)(C)NC(=O)[C@@H]3CNCCN3C)nn(C)c12 [SC-126, (S)-N-(2-(1,7-dimethyl-1H-indazol-3-yl)propan-2-yl)-1-methylpiperazine-2-carboxamide]
33 | 1.1 | Cc1cccn2c(C(C)(C)NC(=O)[C@@H]3CNCCN3CC(F)F)ncc12 [SC-127, (S)-1-(2,2-difluoroethyl)-N-(2-(8-methylimidazo[1,5-al]pyridin-3-yl)propan-2-yl)piperazine-2-carboxamide]
34 | 3.8 | COc1cccn2c(C(C)(C)NC(=O)[C@@H]3CNCCN3C)ncc12 [SC-128, (S)-N-(2-(8-methoxyimidazo[1,5-a]pyridin-3-yl)propan-2-yl)-1-methylpiperazine-2-carboxamide]
35 | 2.8 | CN1CCNC[C@H]1C(=O)NC(C)(C)c1n[nH]c2c(F)cccc12 [SC-129, (S)-N-(2-(7-fluoro-1H-indazol-3-yl)propan-2-yl)-1-methylpiperazine-2-carboxamide]
